Test results reported in patent US10696639B2, “Heterocyclic compounds as HIV protease inhibitors” (Merck Sharp & Dohme Corp., priority 2016, dated 2020).

Molecular target: T1, wild-type HIV-1 protease (Human immunodeficiency virus type 1 group M subtype B, UniProt P04585)
T1 construct: Escherichia coli expressed wild-type HIV-1 protease protein; made in house; host or cells: Escherichia coli
Test: Assay for Inhibition of Microbial Expressed HIV Protease
Type: biochemical
Conditions: E. coli expressed wild-type HIV-1 protease, peptide substrate cleavage, LC-MS readout; mean of at least two independent experiments; read-out: HIV Pr Enzyme HIV1 PR IC50
Experimental: Assay for Inhibition of Microbial Expressed HIV Protease
Inhibition of Escherichia coli expressed wild-type HIV-1 protease protein was carried out with a peptide substrate [Val-Ser-Gln-Asn-(βnaphtyl)Ala-Pro-Ile-Val]. The inhibitor compound was preincubated with HIV-1 protease enzyme in assay buffer (50 mM sodium acetate, pH 5.5, 100 mM NaCl, and 0.1% BSA) for 30 minutes at room temperature. Peptide substrate was added to […] in a total volume of 20 μL containing 20 pM HIV-1 protease (final) after which the reaction was incubated for 1 hour at 30° C. The reaction was quenched by the addition of formic acid and HIV protease inhibitor indinavir to 0.012% and 150 nM final concentrations, respectively. Product formation was determined after separation of product and substrate on a ZORBAX Eclipse XDB-C18 column (Aligent Technologies, Santa Clara, Calif., USA) connected to an API 4000™ mass spectrometer (AB Sciex, Pte. Ltd., Concord Ontario, Canada) with multiple reaction monitoring (transitions were 644.5/428.9 and 615.4/422.2 (M1/M3) for product and indinavir respectively). The extent of inhibition of the reaction was determined from the peak area of the products. Analysis of the products, independently synthesized, provided quantitation standards and confirmation of the product composition.

SMILES	IC50 [nM]
COC(=O)N[C@@H](Cc1cccc(Cl)c1)C(=O)NC(CCCN1C(=N)N[C@](CC(C)C)(c2ccccc2)C1=O)CC1CC1 (stereo partly drawn) [Example 30, 3-chloro-N-{1-(cyclopropylmethyl)-4-[(4R)-2-imino-4-(2-methylpropyl)-5-oxo-4-phenylimidazolidin-1-yl]butyl}-N-alpha-(methoxycarbonyl)-L-phenylalaninamide]	97
COC(=O)N[C@@H](Cc1ccccc1Cl)C(=O)NC(CCCN1C(=N)N[C@](CC(C)C)(c2ccccc2)C1=O)CC1CC1 (stereo partly drawn) [Example 31, 2-chloro-N-{1-(cyclopropylmethyl)-4-[(4R)-2-imino-4-(2-methylpropyl)-5-oxo-4-phenylimidazolidin-1-yl]butyl}-N-alpha-(methoxycarbonyl)-L-phenylalaninamide_]	80
COC(=O)N[C@@H](Cc1cccc(Cl)c1)C(=O)N[C@H](CCCN1C(=N)N[C@](CC(C)C)(c2ccccc2)C1=O)C1CC1 [Example 32, 3-chloro-N-{(1R)-1-cyclopropyl-4-[(4R)-2-imino-4-(2-methylpropyl)-5-oxo-4-phenylimidazolidin-1-yl]butyl}-N-alpha-(methoxycarbonyl)-L-phenylalaninamide]	43
COC(=O)N[C@@H](Cc1ccccc1Cl)C(=O)N[C@H](CCCN1C(=N)N[C@](CC(C)C)(c2ccccc2)C1=O)C1CC1 [Example 33, 2-chloro-N-{(1R)-1-cyclopropyl-4-[(4R)-2-imino-4-(2-methylpropyl)-5-oxo-4-phenylimidazolidin-1-yl]butyl}-N-alpha-(methoxycarbonyl)-L-phenylalaninamide]	23
COC(=O)N[C@@H](Cc1ccccc1Cl)C(=O)N[C@@H](C)CCCN1C(=N)N[C@](CC(C)C)(c2ccccc2)C1=O [Example 34, 2-chloro-N-{(1S)-4-[(4R)-2-imino-4-(2-methylpropyl)-5-oxo-4-phenylimidazolidin-1-yl]-1-methylbutyl}-N-alpha-(methoxycarbonyl)-L-phenylalaninamide]	18
COC(=O)N[C@@H](Cc1cccc(Cl)c1)C(=O)N[C@@H](C)CCCN1C(=N)N[C@](CC(C)C)(c2ccccc2)C1=O [Example 35, 3-chloro-N-{(1S)-4-[(4R)-2-imino-4-(2-methylpropyl)-5-oxo-4-phenylimidazolidin-1-yl]-1-methylbutyl}-N-alpha-(methoxycarbonyl)-L-phenylalaninamide]	20
COC(=O)N[C@@H](Cc1ccccc1)C(=O)N[C@H](CCCN1C(=N)N[C@](CC(C)C)(c2ccccc2)C1=O)C1CC1 [Example 36, N-{(1R)-1-cyclopropyl-4-[(4R)-2-imino-4-(2-methylpropyl)-5-oxo-4-phenylimidazolidin-1-yl]butyl}-N-alpha-(methoxycarbonyl)-L-phenylalaninamide]	9
COC(=O)N[C@@H](Cc1ccc(Cl)cc1)C(=O)N[C@@H](C)CCCN1C(=N)N[C@](CC(C)C)(c2ccccc2)C1=O [Example 37, 4-chloro-N-{(1S)-4-[(4R)-2-imino-4-(2-methylpropyl)-5-oxo-4-phenylimidazolidin-1-yl]-1-methylbutyl}-N-alpha-(methoxycarbonyl)-L-phenylalamnamide]	61
COC(=O)N[C@@H](Cc1cccc2ccccc12)C(=O)N[C@@H](C)CCCN1C(=N)N[C@](CC(C)C)(c2ccccc2)C1=O [Example 38, methyl [(1S)-2-({(1S)-4-[(4R)-2-imino-4-(2-methylpropyl)-5-oxo-4-phenylimidazolidin-1-yl]-1-methylbutyl}amino)-1-(naphthalen-1-ylmethyl)-2-oxoethyl]carbamate]	23
COC(=O)N[C@@H](Cc1ccccc1OC)C(=O)N[C@@H](C)CCCN1C(=N)N[C@](CC(C)C)(c2ccccc2)C1=O [Example 39, N-{(1S)-4-[(4R)-2-imino-4-(2-methylpropyl)-5-oxo-4-phenylimidazolidin-1-yl]-1-methylbutyl}-2-methoxy-N-alpha-(methoxycarbonyl)-L-phenylalaninamide]	3
COC(=O)N[C@@H](Cc1cccc(OC)c1)C(=O)N[C@@H](C)CCCN1C(=N)N[C@](CC(C)C)(c2ccccc2)C1=O [Example 40, N-{(1S)-4-[(4R)-2-imino-4-(2-methylpropyl)-5-oxo-4-phenylimidazolidin-1-yl]-1-methylbutyl}-3-methoxy-N-alpha-(methoxycarbonyl)-L-phenylalaninamide]	54
COC(=O)N[C@@H](CC1CCCCC1)C(=O)N[C@@H](C)CCCN1C(=N)N[C@](CC(C)C)(c2ccccc2)C1=O [Example 41, methyl [(1S)-1-(cyclohexylmethyl)-2-({(1S)-4-[(4R)-2-imino-4-(2-methylpropyl)-5-oxo-4-phenylimidazolidin-1-yl]-1-methylbutyl}amino)-2-oxoethyl]carbamate]	31
COC(=O)N[C@@H](Cc1ccc2ccccc2c1)C(=O)N[C@@H](C)CCCN1C(=N)N[C@](CC(C)C)(c2ccccc2)C1=O [Example 42, methyl ((S)-1-(((S)-5-((R)-2-imino-4-isobutyl-5-oxo-4-phenylimidazolidin-1-yl)pentan-2-yl)amino)-3-(naphthalen-2-yl)-1-oxopropan-2-yl)carbamate]	46
COC(=O)N[C@@H](Cc1cccc(Cl)c1)C(=O)N[C@H](CCCN1C(=N)N[C@](CC(C)C)(c2ccccc2)C1=O)C(C)C [Example 43, 3-chloro-N-[(1R)-4-[(4R)-2-imino-4-(2-methylpropyl)-5-oxo-4-phenylimidazolidin-1-yl]-1-(1-methylethyl)butyl]-N-alpha-(methoxycarbonyl)-L-phenylalaninamide]	5
COC(=O)N[C@@H](Cc1ccccc1Cl)C(=O)N[C@H](CCCN1C(=N)N[C@](CC(C)C)(c2ccccc2)C1=O)C(C)C [Example 44, 2-chloro-N-[(1R)-4-[(4R)-2-imino-4-(2-methylpropyl)-5-oxo-4-phenylimidazolidin-1-yl]-1-(1-methylethyl)butyl]-N-alpha-(methoxycarbonyl)-L-phenylalaninamide]	20
COC(=O)N[C@@H](Cc1ccccc1)C(=O)N[C@H](CCCN1C(=N)N[C@](CC(C)C)(c2ccccc2)C1=O)C(C)C [Example 45, N-[(1R)-4-[(4R)-2-imino-4-(2 methylpropyl)-5-oxo-4-phenylimidazolidin-1-yl]-1-(1 methylethyl)butyl]-N-alpha-(methoxycarbonyl)-L-phenylalaninamide]	27
COC(=O)N[C@@H](Cc1ccccc1)C(=O)N[C@H](CCCN1C(=N)N[C@](CC(C)C)(c2ccccc2)C1=O)C(F)(F)F [Example 46, N-[(1R)-4-[(4R)-2-imino-4-(2-methylpropyl)-5-oxo-4-phenylimidazolidin-1-yl]-1-(trifluoromethyl)butyl]-N-alpha-(methoxycarbonyl)-L-phenylalaninamide]	32
CC[C@@H](CCCN1C(=N)N[C@](CC(C)C)(c2ccccc2)C1=O)NC(=O)[C@H](Cc1ccccc1)NC(=O)OC [Example 47, N-{(1S)-1-ethyl-4-[(4R)-2-imino-4-(2-methylpropyl)-5 oxo-4-phenylimidazolidin-1 yl]butyl}-N-alpha-(methoxycarbonyl)-L-phenylalaninamide]	22
CC[C@@H](CCCN1C(=N)N[C@](CC(C)C)(c2ccccc2)C1=O)NC(=O)[C@H](Cc1ccc(Cl)cc1)NC(=O)OC [Example 48, 4-chloro-N-{(1S)-1-ethyl-4-[(4R)-2-imino-4-(2-methylpropyl)-5-oxo-4-phenylimidazolidin-1-yl]butyl}-N-alpha-(methoxycarbonyl)-L-phenylalaninamide]	14
